Measured values taken from patent US20080227864A1, “Lhr1 Activators as Medicaments” (priority 2004, published 2008).

Columns and labels:
[1] = system: APOAl mRNA levels in HepG2 cells; experiment: APOAl mRNA levels in HepG2 cells treated with compound (RT-QPCR); assay type: cell-based; conditions: 48 hours, 10 μm, vs vehicle (DMSO 0.1%), FIG. 4
Protocol: HepG2 and CV1 cells (ATCC, Rockville, Md.) were maintained in Basic Eagle's medium (BME) supplemented with 2 mM glutamine, 1% non-essential amino acids and 10% (v/v) fetal calf serum (FCS) in an atmosphere of 5% CO2 at 37° C.
Total cellular RNA was extracted using TRIZOL (Invitrogen). Real time quantitative PCR (RT-QPCR) assays were performed using an Applied Biosystems 7900 sequence detector. Total RNA (1 μg) was reverse transcribed with random hexamers using Taqman reverse-transcription reagents kit (Applied Biosystems) following the manufacturer's protocol. RNA expression levels were determined by Sybr green assays as described. 18SrRNA transcript was used as an internal control to normalize the variations for RNA amounts. Gene expression levels are expressed relative to 18S rRNA. Apo Al, Apo B, SR-Bl, SHP, LRH-1 and CYP7α mRNA levels were measured using the following oligonucleotides: For 18S: 5′-[…]-3′ and 5′-[…]-3′; for APO Al: 5′-[…]-3′ and 5′-[…]-3′; for Apo B: 5′-[…]-3′ and 5′-[…]-3′; for SR-Bl: 5′-[…]-3′ and 5′-[…]-3′; for SHP: 5′-[…]-3′ and 5′-[…]-3′; for LRH-1: 5′-[…]-3′ and 5′-[…]-3′; for CYP7α:5′-[…]-3′ and 5′-[…]-3′.
HepG2 cells, cultured in 24-well plates, were treated for 48 hours with Compound I, 10 μm or vehicle (DMSO 0.1%) prior to harvest and determination of APOAl mRNA levels by RT-QPOCR as described in Example 1 above.

[2] = biological target: T1, Human LRH-1 Ligand Binding Domain (Homo sapiens, UniProt O00482); experiment: LRH-1 LBD / TIF2 Box3 coactivator peptide recruitment assay (Eu/APC, Lance mode); assay type: biochemical; conditions: n of 44
T1 construct: made in house; host or cells: E. coli BL21(DE3), pRSETa vector
T1 sequence (O00482 288-541): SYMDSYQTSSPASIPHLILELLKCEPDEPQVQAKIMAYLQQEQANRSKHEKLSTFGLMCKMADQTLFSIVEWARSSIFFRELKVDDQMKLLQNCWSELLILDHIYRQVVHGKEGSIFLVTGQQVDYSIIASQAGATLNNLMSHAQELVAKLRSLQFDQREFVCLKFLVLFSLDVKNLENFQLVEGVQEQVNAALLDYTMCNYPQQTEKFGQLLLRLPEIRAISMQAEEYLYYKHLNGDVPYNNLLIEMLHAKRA
T1 sequence (as listed by the source partner): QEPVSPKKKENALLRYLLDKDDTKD
Description: Human LRH-1 Ligand Binding Domain (LRH1 LBD) was expressed in E.coli strain BL21(DE3) as an amino-terminal polyhistidine tagged fusion protein. Expression was under the control of an IPTG inducible T7 promoter. DNA encoding this recombinant protein was subcloned into the pRSETa expression vector (Invitrogen). Sequence encoding the modified polyhistidine tag ([…]) was fused in frame to sequence encoding residues 248-501 of LRH-1. The coding sequence of Human LRH-1 LBD was derived from Genbank accession number U—93553.
Purified LRH-1 LBD was desalted/buffer exchanged using PD-10 gel filtration columns into PBS [100 mM NaPhosphate, pH 7.2, 150 mM NaCl]. LRH-1 LBD was diluted to approximately 10 microM in PBS and five-fold molar excess of NHS-LC-Biotin (Pierce) was added in a minimal volume of PBS. This solution was incubated with gentle mixing for 60 minutes at ambient room temperature. The biotinylation modification reaction was stopped by the addition of 2000× molar excess of Tris-HCl, pH 8. […]
The above solutions are gently mixed together to give a final preparation of 5E-9 M (5 nM) APC-labelled LRH1 LBD and 1E-8 M […] Europium-labelled TIF2 box3 peptide. […] The plates were incubated for 1 hr then read on Wallac Victor2 V in Lance mode for EU/APC. […]

- EC50 ([2]; LRH1 agonist activity, TIF2 Box3 peptide recruitment, read-out: ave pEC50 (converted)): 257 nM
- ave % basal (maximum observed increase in agonist activity compared to the vehicle control) [2]: 277 % basal
SMILES: CCC/C=C(\CCC)C1=C(c2ccccc2)[C@@]2(Nc3ccccc3)CCC[C@H]2C1 [Compound 1]
- APO Al gene expression (APOAl mRNA levels) [1]: Induces APO Al Gene Expression
